This assay concerns the target T1, TLR7 (Homo sapiens, UniProt Q9NYK1).
T1 construct: expressed in transfected cells; host or cells: HEK cells carrying TLR7 and an NF-kB reporter read with Steady-Glo
T1 sequence (Q9NYK1 27-1049): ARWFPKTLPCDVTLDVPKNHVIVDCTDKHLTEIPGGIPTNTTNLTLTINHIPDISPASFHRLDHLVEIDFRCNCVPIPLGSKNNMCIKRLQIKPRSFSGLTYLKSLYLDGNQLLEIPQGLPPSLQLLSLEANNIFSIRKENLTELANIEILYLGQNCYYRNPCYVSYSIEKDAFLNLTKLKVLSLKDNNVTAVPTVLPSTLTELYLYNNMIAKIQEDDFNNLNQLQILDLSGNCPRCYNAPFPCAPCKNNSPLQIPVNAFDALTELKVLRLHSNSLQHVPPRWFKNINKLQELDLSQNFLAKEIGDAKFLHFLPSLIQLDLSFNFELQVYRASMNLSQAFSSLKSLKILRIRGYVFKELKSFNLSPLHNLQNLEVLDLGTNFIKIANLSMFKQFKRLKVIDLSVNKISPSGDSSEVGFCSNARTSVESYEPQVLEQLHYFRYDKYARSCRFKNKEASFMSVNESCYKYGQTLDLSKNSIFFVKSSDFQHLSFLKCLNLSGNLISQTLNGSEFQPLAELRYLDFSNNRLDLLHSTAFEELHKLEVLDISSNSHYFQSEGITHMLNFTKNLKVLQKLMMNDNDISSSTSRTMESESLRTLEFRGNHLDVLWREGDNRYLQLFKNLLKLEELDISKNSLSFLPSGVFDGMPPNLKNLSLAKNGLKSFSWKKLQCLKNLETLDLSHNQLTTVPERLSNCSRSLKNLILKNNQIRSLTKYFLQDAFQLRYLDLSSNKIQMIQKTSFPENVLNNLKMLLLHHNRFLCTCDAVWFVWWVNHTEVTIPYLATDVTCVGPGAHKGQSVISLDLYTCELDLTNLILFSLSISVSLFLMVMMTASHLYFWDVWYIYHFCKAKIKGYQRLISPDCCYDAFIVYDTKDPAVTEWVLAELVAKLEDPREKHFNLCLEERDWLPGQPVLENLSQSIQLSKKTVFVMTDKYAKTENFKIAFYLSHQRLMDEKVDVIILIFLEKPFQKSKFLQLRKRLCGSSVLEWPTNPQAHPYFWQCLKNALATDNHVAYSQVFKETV
The assay is described as follows: HEK Cell Assay (TLR7/NFKb HEK reporter cells, Steady-Glo). The conditions noted are these: compound 30 min, then R*48 agonist 5 hours, Steady-Glo readout, read-out: Potency. It is filed as cell-based. An outline of the steps:
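TLR7/NF-κB HEK reporter cells cultured 24 h, then pre-incubated 30 min with compound before adding R*48 agonist. Luciferase read by Steady-Glo luminescence after 5 h.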

pIC50: −log10 of the molar value.

With `Cc1ccc([C@@H]2C[C@@H](C)CN(C(=O)CC3CCN(C)CC3)C2)c2cccnc12` [Compound 80, 1-[(3R,5S)-3-Methyl-5-(8-methyl-quinolin-5-yl)-piperidin-1-yl]-2-(1-methyl-piperidin-4-yl)-ethanone], the pIC50 was > 6.00.
To `Cc1ccc([C@H]2C[C@@H](C)CN(C(=O)CC3CCN(C)CC3)C2)c2cccnc12` [Compound 81, 1-[(3R,5R)-3-Methyl-5-(8-methyl-quinolin-5-yl)-piperidin-1-yl]-2-(1-methyl-piperidin-4-yl)-ethanone] belongs > 6.00.
The figure for `Cc1ccc([C@@H]2C[C@H](C)CN(C(=O)CC3CCN(C)CC3)C2)c2cccnc12` [Compound 82, 1-[(3S,5S)-3-Methyl-5-(8-methyl-quinolin-5-yl)-piperidin-1-yl]-2-(1-methyl-piperidin-4-yl)-ethanone] is 4.70 to 6.00; for `Cc1ccc([C@H]2C[C@H](C)CN(C(=O)CC3CCN(C)CC3)C2)c2cccnc12` [Compound 83, 1-[(3S,5R)-3-Methyl-5-(8-methyl-quinolin-5-yl)-piperidin-1-yl]-2-(1-methyl-piperidin-4-yl)-ethanone] it is > 6.00; for `Cc1ccc([C@H]2C[C@@H](C)CN(C(=O)CC3C4CC3CN(C)C4)C2)c2cccnc12` (stereo partly drawn) [Compound 84, 2-(3-Methyl-3-aza-bicyclo [3.1.1]hept-6-yl)-1-[(3R,5R)-3-methyl-5-(8-methyl-quinolin-5-yl)-piperidin-1-yl]-ethanone] it is > 6.00.
On to `C[C@@H]1C[C@H](c2cc(F)c(C#N)c3ncccc23)CN(C(=O)CC2CCN(C)CC2)C1` [Compound 85, 7-Fluoro-5-{(3R,5R)-5-methyl-1-[2-(1-methyl-piperidin-4-yl)-acetyl]-piperidin-3-yl}-quinoline-8-carbonitrile], for which the pIC50 is 4.70 to 6.00.
Take `COc1ccc([C@@H]2C[C@@H](C)CN(C(=O)CC3CCN(C)CC3)C2)c2cccnc12` [Compound 86, 1-[(3S,5R)-3-(8-Methoxy-quinolin-5-yl)-5-methyl-piperidin-1-yl]-2-(1-methyl-piperidin-4-yl)-ethanone]: the pIC50 was > 6.00.
The figure for `COc1ccc([C@H]2C[C@@H](C)CN(C(=O)CC3CCN(C)CC3)C2)c2cccnc12` [Compound 87, 1-[(3R,5R)-3-(8-Methoxy-quinolin-5-yl)-5-methyl-piperidin-1-yl]-2-(1-methyl-piperidin-4-yl)-ethanone] is > 6.00; for `COc1ncc([C@@H]2C[C@@H](C)CN(C(=O)CC3CCN(C)CC3)C2)c2cccnc12` [Compound 88, 1-[(3S,5R)-3-(8-Methoxy-[1,7]naphthyridin-5-yl)-5-methyl-piperidin-1-yl]-2-(1-methyl-piperidin-4-yl)-ethanone] it is 4.70 to 6.00.
To `COc1ncc([C@H]2C[C@@H](C)CN(C(=O)CC3CCN(C)CC3)C2)c2cccnc12` [Compound 89, 1-[(3R,5R)-3-(8-Methoxy-[1,7]naphthyridin-5-yl)-5-methyl-piperidin-1-yl]-2-(1-methyl-piperidin-4-yl)-ethanone] belongs 4.70 to 6.00.
In the case of `Cc1c(F)cc([C@H]2C[C@@H](C)CN(C(=O)CC3CCN(C)CC3)C2)c2cccnc12` [Compound 90, 1-[(3R,5R)-3-(7-Fluoro-8-methyl-quinolin-5-yl)-5-methyl-piperidin-1-yl]-2-(1-methyl-piperidin-4-yl)-ethanone], the pIC50 is > 6.00.
To `C[C@@H]1C[C@H](c2ccc(C#N)c3ncccc23)CN(C(=O)C[C@H]2CCN(C)CC2(F)F)C1` [Compound 91, 5-{(3R,5R)-1-[2-((R)-3,3-Difluoro-1-methyl-piperidin-4-yl)-acetyl]-5-methyl-piperidin-3-yl}-quinoline-8-carbonitrile] belongs 4.70 to 6.00; to `C[C@@H]1C[C@H](c2ccc(C#N)c3ncccc23)CN(C(=O)C[C@@H]2CCN(C)CC2(F)F)C1` [Compound 92, 5-((3R,5R)-1-[2-((S)-3,3-Difluoro-1-methyl-piperidin-4-yl)-acetyl]-5-methyl-piperidin-3-yl}-quinoline-8-carbonitrile], > 6.00.
Take `C[C@@H]1C[C@H](c2ccc(C#N)c3ncccc23)CN(C(=O)CC2C3CC2CN(C)C3)C1` (stereo partly drawn) [Compound 93, 5-[(3R,5R)-5-methyl-1-[2-(3-methyl-3-azabicyclo[3.1.1]heptan-6-yl)acetyl]-3-piperidyl]quinoline-8-carbonitrile]: the pIC50 was > 6.00.
To `Cc1ncc([C@@H]2C[C@@H](C)CN(C(=O)CC3CCN(C)CC3)C2)c2cccnc12` [Compound 94, 1-[(3R,5S)-3-Methyl-5-(8-methyl-[1,7]naphthyridin-5-yl)-piperidin-1-yl]-2-(1-methyl-piperidin-4-yl)-ethanone] belongs 4.70 to 6.00; to `Cc1ncc([C@H]2C[C@@H](C)CN(C(=O)CC3CCN(C)CC3)C2)c2cccnc12` [Compound 95, 1-[(3R,5R)-3-Methyl-5-(8-methyl-[1,7]naphthyridin-5-yl)-piperidin-1-yl]-2-(1-methyl-piperidin-4-yl)-ethanone], 4.70 to 6.00.
The figure for `C[C@@H]1C[C@@H](c2ccc(C#N)c3ncccc23)CN(C(=O)CN2CCN(C)CC2)C1` [Compound 96, 5-{(3S,5R)-5-Methyl-1-[2-(4-methyl-piperazin-1-yl)-acetyl]-piperidin-3-yl}-quinoline-8-carbonitrile] is 4.70 to 6.00.
For `C[C@@H]1C[C@H](c2ccc(C#N)c3ncccc23)CN(C(=O)CN2CCN(C)CC2)C1` [Compound 97, 5-((3R,5R)-5-Methyl-1-[2-(4-methyl-piperazin-1-yl)-acetyl]-piperidin-3-yl}-quinoline-8-carbonitrile], the pIC50 was > 6.00.
The figure for `C[C@@H]1C[C@H](c2ccc(C#N)c3ncccc23)CN(C(=O)C2(N)CC2)C1` [Compound 98, 5-[(3R,5R)-1-(1-Amino-cyclopropanecarbonyl)-5-methyl-piperidin-3-yl]-quinoline-8-carbonitrile] is < 4.70.
The figure for `C[C@@H]1C[C@@H](c2ccc(C#N)c3ncccc23)CN(C(=O)C2CC(N)C2)C1` (stereo partly drawn) [Compound 99, 5-[(3S,5R)-1-(3-aminocyclobutanecarbonyl)-5-methyl-3-piperidyl]quinoline-8-carbonitrile] is 4.70 to 6.00; for `C[C@@H]1C[C@H](c2ccc(C#N)c3ncccc23)CN(C(=O)C2CC(N)C2)C1` (stereo partly drawn) [Compound 100, 5-[(3R,5R)-1-(3-aminocyclobutanecarbonyl)-5-methyl-3-piperidyl]quinoline-8-carbonitrile] it is > 6.00; for `C[C@H]1C[C@H](c2ccc(C#N)c3nccnc23)CN(C(=O)CC2CCN(C)CC2)C1` [Compound 101, 8-{(3R,5S)-5-Methyl-1-[2-(1-methyl-piperidin-4-yl)-acetyl]-piperidin-3-yl}-quinoxaline-5-carbonitrile] it is < 4.70.
Consider `C[C@H]1C[C@@H](c2ccc(C#N)c3nccnc23)CN(C(=O)CC2CCN(C)CC2)C1` [Compound 102, 8-{(3S,5S)-5-Methyl-1-[2-(1-methyl-piperidin-4-yl)-acetyl]-piperidin-3-yl}-quinoxaline-5-carbonitrile], for which the pIC50 was > 6.00.
The figure for `C[C@@H]1C[C@H](c2ccc(OC(F)(F)F)c3ncccc23)CN(C(=O)CC2CCN(C)CC2)C1` [Compound 103, 2-(1-Methyl-piperidin-4-yl)-1-[(3R,5R)-3-methyl-5-(8-trifluoromethoxy-quinolin-5-yl)-piperidin-1-yl]-ethanone] is 4.70 to 6.00.
Regarding `C[C@@H]1C[C@@H](c2ccc(OC(F)(F)F)c3ncccc23)CN(C(=O)CN2CCN(C)CC2)C1` [Compound 104, 2-(4-Methyl-piperazin-1-yl)-1-[(3R,5S)-3-methyl-5-(8-trifluoromethoxy-quinolin-5-yl)-piperidin-1-yl]-ethanone], the pIC50 was < 4.70.
With `C[C@@H]1C[C@H](c2ccc(OC(F)(F)F)c3ncccc23)CN(C(=O)CN2CCN(C)CC2)C1` [Compound 105, 2-(4-Methyl-piperazin-1-yl)-1-[(3R,5R)-3-methyl-5-(8-trifluoromethoxy-quinolin-5-yl)-piperidin-1-yl]-ethanone], the pIC50 is 4.70 to 6.00.
The figure for `C[C@@H]1C[C@H](c2ccc(C#N)c3ncccc23)CN(Cc2cnn(C)c2)C1` [Compound 106, 5-[(3R,5R)-5-methyl-1-[(1-methylpyrazol-4-yl)methyl]-3-piperidyl]quinoline-8-carbonitrile] is < 4.70; for `CC1CC(c2ccc(C#N)c3ncccc23)CN(C(=O)NC2CCN(C)CC2)C1` (stereo not shown) [Compound 109, 3-(8-Cyano-quinolin-5-yl)-5-methyl-piperidine-1-carboxylic acid (1-methyl-piperidin-4-yl)-amide] it is > 6.00.
